Here are results for eleven molecules from article PMC10986521 (Microbiology Spectrum, 2024).

Data set [1] has as its target T1, FMDV 3Cpro (Foot-and-mouth disease virus A, UniProt A0A097I315). The experiment in a line: cell-based. The following applies: Cell-based assay (EC50). Further details: species or system FMDV A/IND287/96 strain.
Data set [2] concerns FMDV. The following applies: read-out: in vitro potency against FMDV (EC50); cited from earlier work.
A short description of data set [3]: in vitro. The note with it: human.
The target of data set [4] is T1, FMDV 3Cpro. The experiment in a line: biochemical. Set-up: species or system FMDV A/IND287/96 strain (serotype A). The following applies: FRET assay (IC50).
Data set [5] relates to SARS-CoV-2. The note with it: read-out: EC50 against SARS-CoV-2; cited from earlier work.
The test system of data set [6] is FMDV. The following applies: pig, in vivo; cited from earlier work.
Data set [7] deals with FMDV. The note with it: mouse, in vivo; cited from earlier work.
Data set [8] has as its system FMDV. The note with it: cited from earlier work.
In data set [9] the test system is FMDV. The note with it: cited from earlier work. This is another data set of the same source.

Molecules are shown by their SMILES.

With `CCOC(=O)/C=C/[C@H](C[C@@H]1CCNC1=O)NC(=O)[C@@H](CC(=O)[C@@H](NC(=O)c1cc(C)on1)C(C)C)Cc1ccc(F)cc1` [AG7088, Rupintrivir, reference compound], the EC50 in [1] is 10300 ± 200 nM; in data set [2] it was 10000 to 20000 nM. Further, the CC50 in [3] was > 50000 nM. Also, in [4], the IC50 came to 4300 ± 200 nM.
For `CC(C)C[C@H](NC(=O)OCC(C)(C)Sc1ccccc1)C(=O)N[C@H](C=O)C[C@@H]1CCNC1=O` [Compound D1c], the results for the EC50 in data set [1] and in data set [5] were 1850 ± 350 nM and 12 nM, respectively. For the same molecule, the CC50 in data set [3] was > 50000 nM. The IC50 in data set [4] was determined as 1200 ± 710 nM.
As to `CC(C)C[C@H](NC(=O)OCC(C)(C)Sc1ccccc1)C(=O)N[C@@H](C[C@@H]1CCNC1=O)C(O)S(=O)(=O)O` (some centres unmarked) [Compound D1d], the EC50 in [1] was 1500 ± 430 nM; in data set [5], 10 nM. The CC50 in data set [3] is > 50000 nM. In addition, in data set [4], the IC50 turned out to be 1010 ± 420 nM.
In the case of `NC(=O)c1ncc[nH]c1=O` [Compound T-1105], the “viremia in FMDV-challenged pigs” value in data set [6] is on record as “reduced or prevented viremia”.
For `CCCCOc1nc(N)c2c(n1)N(Cc1cccc(CN3CCCC3)c1)CC(=O)N2` [GS-9620], the “survival rate in FMDV-vaccinated and un-vaccinated mice” value in data set [7] is recorded as “enhanced survival rate”.
For `Oc1ccccc1-c1nc2c3ccccc3c3ccccc3c2[nH]1` [NSC332670], the “replication of FMDV in cell culture via inhibiting 3Cpro” value in [8] is “inhibited the replication of FMDV in cell culture”.
For the molecule `COc1ccc(-c2cc(=O)c3c(O)cc(O)c(-c4cc(-c5cc(=O)c6c(O)cc(O)cc6o5)ccc4OC)c3o2)cc1` [isoginkgetin], the “replication of FMDV in cell culture via inhibiting 3Cpro” value in [8] is on record as “inhibited the replication of FMDV in cell culture”.
As to `O=c1cc(-c2ccc(O)c(O)c2)oc2cc(O)cc(O)c12` [luteolin], the “replication of FMDV in cell culture via inhibiting 3Cpro” value in data set [8] is reported as “inhibited the replication of FMDV in cell culture”.
With `Cc1cc(CCCOc2c(C)cc(-c3noc(C(F)(F)F)n3)cc2C)on1` [pleconaril], the “in vitro activity against FMDV (EC50)” value in data set [9] is listed as “low micromolar to millimolar range”.
Turning to `O=c1c(O)c(-c2ccc(O)c(O)c2)oc2cc(O)cc(O)c12` [quercetin], the “replication of FMDV in cell culture via inhibiting 3Cpro” value in data set [8] is recorded as “inhibited the replication of FMDV in cell culture”.
Take `NC(=O)c1ncn([C@@H]2O[C@H](CO)[C@@H](O)[C@H]2O)n1` [ribavirin]: in data set [9], the “in vitro activity against FMDV (EC50)” value is on record as “low micromolar to millimolar range”.
